Measurements published in BindingDB's records for patent US20250136592 (Bridge Medicines, 2025).

Biological target: T1, Protein ENL (Homo sapiens, UniProt Q03111)
T1 sequence (Q03111 whole entry): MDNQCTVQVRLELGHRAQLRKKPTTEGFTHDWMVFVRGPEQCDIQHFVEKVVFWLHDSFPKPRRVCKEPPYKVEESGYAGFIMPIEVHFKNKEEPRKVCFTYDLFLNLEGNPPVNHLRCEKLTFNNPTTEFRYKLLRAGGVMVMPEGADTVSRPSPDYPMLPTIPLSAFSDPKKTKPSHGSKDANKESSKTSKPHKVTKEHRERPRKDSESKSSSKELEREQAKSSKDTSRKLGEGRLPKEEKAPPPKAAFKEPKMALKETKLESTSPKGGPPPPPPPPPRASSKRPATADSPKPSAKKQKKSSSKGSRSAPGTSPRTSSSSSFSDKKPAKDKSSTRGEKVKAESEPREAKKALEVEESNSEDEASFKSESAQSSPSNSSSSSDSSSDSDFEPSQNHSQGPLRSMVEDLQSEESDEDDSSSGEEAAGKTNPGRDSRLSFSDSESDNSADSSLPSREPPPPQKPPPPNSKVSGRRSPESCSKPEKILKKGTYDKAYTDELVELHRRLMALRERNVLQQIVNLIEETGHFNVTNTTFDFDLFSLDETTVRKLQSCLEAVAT
Assay: FRET Assay
Protocol: Low control (LC) wells received 5 μL of assay buffer instead of ENL protein. […] The response at each compound concentration minus the LC value was converted to percent inhibition of the vehicle control group response (HC-LC).

Compound	IC50 [nM]
CN1CCC[C@@H]1c1nc2ccc(NC(=O)c3ccc4c(C5CC5)nn(C)c4c3)cc2[nH]1 [US20250136592, Example 10]	98
CN1CCC[C@@H]1c1nc2cc(NC(=O)c3ccc4c(-c5ccncc5)noc4c3)ccc2[nH]1 [US20250136592, Example 13]	158
Cc1nccc2cc(C(=O)Nc3cc4[nH]c([C@H]5CCCCN5C)cc4cn3)ccc12 [US20250136592, Example 80]	18
CN1CCC[C@@H]1c1cc2cnc(NC(=O)c3ccc4c(c3)nnn4-c3ccncc3)cc2[nH]1 [US20250136592, Example 85]	56
